≈ marks a conversion by molar mass, not a printed value.

The subject of one data set is B. mallei. Kind of data set: microbe, parasite or virus in culture. Conditions: Burkholderia mallei, read-out: Minimal Inhibitory Concentration (MIC). The data set is classed as cell-based.
For data set [1], the system named is E. coli (ATCC 8739), B. subtilis (ATCC 6633), P. aeruginosa (ATCC 9027), S. aureus (ATCC 6538P), H. pylori (ATCC43504), C. albicans (ATCC 200498). The data set is classed as cell-based.
Data set [2] relates to Pseudomonas syringae (DSM 10604). Kind of data set: microbe, parasite or virus in culture. In kind it is cell-based. The conditions noted are these: DSM10604, read-out: Minimal Inhibitory Concentration (MIC).
The next data set has as its system B. pseudomallei. Put plainly: microbe, parasite or virus in culture. In kind it is cell-based. Conditions: Burkholderia pseudomallei, read-out: Minimal Inhibitory Concentration (MIC).
Data set [3] deals with Streptomyces roietensis (DSM 101729). Put plainly: microbe, parasite or virus in culture. The conditions noted are these: DSM101729, read-out: Minimal Inhibitory Concentration (MIC). In kind it is cell-based.
Data set [4] relates to human cells A498, BEAS-2B, Caco-2, HaCaT, HepG2, HUVEC, IMR90, N87.
The next data set concerns B. cepacia. Put plainly: microbe, parasite or virus in culture. In kind it is cell-based. Conditions: Burkholderia cepacia, read-out: Minimal Inhibitory Concentration (MIC).
Data set [5] concerns large panel of bacteria including Gram+ and Gram- bacteria and Mycobacterium as well as fungi associated to plant infection. The data set is classed as cell-based.
Data set [6] concerns human liver cell line HepG2 (ATCC HB-8065). Put plainly: cells. The conditions noted are these: HepG2, 48 h, read-out: IC50 on the viability of HepG2 cells.
The test system is the same in data set [7].
In data set [8] the test system is P. aeruginosa (ATCC 9027). In kind it is cell-based, Pseudomonas aeruginosa.
The subject of another data set is Erwina cacticida. Conditions: cited from earlier work.
A further data set relates to Phoma medicaginis. Conditions: cited from earlier work.

As a reminder, the melting point is the temperature, or range, at which the solid turns liquid. For `CC(=O)Nc1ccc2c(c1)C(=O)/C(=C/c1ccccc1)O2`, the melting point was determined as 241 °C.
`CC(=O)Nc1ccc2c(c1)C(=O)/C(=C/c1cccc(OCc3ccccc3)c1)O2` [A7, (Z)-N-(2-(3-(benzyloxy)benzylidene)-3-oxo-2,3-dihydrobenzofuran-5-yl)acetamide]: the MIC is 1.5 to 12.5 µM (≈ 0.578 to 4.82 µg/mL) in the data set on B. mallei; 1.5 to 3.12 µM (≈ 0.578 to 1.2 µg/mL) in data set [2]; 1.5 to 12.5 µM (≈ 0.578 to 4.82 µg/mL) in the data set on B. pseudomallei; 6.25 to 12.5 µM (≈ 2.41 to 4.82 µg/mL) in data set [3]; 3.12 to 12.5 µM (≈ 1.2 to 4.82 µg/mL) with B. cepacia. Also, the “antimicrobial activity on tested strains (ranking)” value (“antimicrobial activity … (ranking)” below) in data set [1] is listed as “the more active”. The “Therapeutic index (TI) or safe factor (SF)” value (“Therapeutic index” below) in data set [4] was 38-4017. In addition, the “mean of TI/SF” value in data set [4] is 370. For the same molecule, the “antimicrobial activity, spectrum” value in [5] is listed as “confirmed the activity”.
By IC50 is commonly meant the point on the concentration scale where inhibition reaches its midpoint. As to `CC(=O)Nc1ccc2c(c1)C(=O)/C(=C/c1ccc(OCc3ccccc3)c(OCc3ccccc3)c1)O2` [AD-1-49, (Z)-N-(2-(3,4-bis(benzyloxy)benzylidene)-3-oxo-2,3-dihydrobenzofuran-5-yl)acetamide], the concentration for half-maximal inhibition (IC50) in data set [6] is over 250 µM.
On to `COc1cccc(/C=C2\Oc3ccc(C(=O)O)cc3C2=O)c1` [AD-1-61, (2Z)-2-(3-methoxybenzylidene)-3-oxo-2,3-dihydro-1-benzofuran-5-carboxylic acid], for which, in data set [6], the IC50 is over 250 µM.
For the molecule `CN(C)c1ccc(/C=C2\Oc3ccc(C(=O)O)cc3C2=O)cc1` [AD-1-62, (2Z)-2-[4-(dimethylamino)benzylidene]-3-oxo-2,3-dihydro-1-benzofuran-5-carboxylic acid], the 50% inhibitory concentration (IC50) in data set [6] is over 250 µM.
With `Nc1ccc2c(c1)C(=O)/C(=C/c1cccc(Oc3ccccc3)c1)O2` [B1, (Z)-5-amino-2-(3-phenoxybenzylidene)benzofuran-3(2H)-one], the MIC in the data set with B. mallei lay within 1.5 to 12.5 µM (≈ 0.494 to 4.12 µg/mL); in data set [2], 1.5 to 3.12 µM (≈ 0.494 to 1.03 µg/mL); in the data set on B. pseudomallei, 1.5 to 12.5 µM (≈ 0.494 to 4.12 µg/mL); in [3], 6.25 to 12.5 µM (≈ 2.06 to 4.12 µg/mL); with B. cepacia, 3.12 to 12.5 µM (≈ 1.03 to 4.12 µg/mL).
For the molecule `CC(=O)Nc1ccc2c(c1)C(=O)/C(=C/c1ccc(OC(C)C)cc1)O2` [B5, (Z)-N-(2-(4-isopropoxybenzylidene)-3-oxo-2,3-dihydrobenzofuran-5-yl)acetamide], the MIC in the data set with B. mallei lay within 1.5 to 12.5 µM (≈ 0.506 to 4.22 µg/mL); in data set [2], 1.5 to 3.12 µM (≈ 0.506 to 1.05 µg/mL); with B. pseudomallei, 1.5 to 12.5 µM (≈ 0.506 to 4.22 µg/mL); in [3] it was 6.25 to 12.5 µM (≈ 2.11 to 4.22 µg/mL); in the data set with B. cepacia it was 3.12 to 12.5 µM (≈ 1.05 to 4.22 µg/mL). In [1], the “antimicrobial activity … (ranking)” value was “the more active”. Also, the “Therapeutic index” value in data set [4] is 38-4017. For the same molecule, the “mean of TI/SF” value in data set [4] stood at 103. Further, the “antimicrobial activity, spectrum” value in data set [5] is reported as “confirmed the activity”.
As for `CC(=O)Nc1ccc2c(c1)C(=O)/C(=C/c1ccc(C(=O)O)cc1)O2` [C4, (Z)-4-((5-acetamido-3-oxobenzofuran-2(3H)-ylidene)methyl)benzoic acid], the MIC with B. mallei and in the data set with B. pseudomallei was 1.5 to 12.5 µM (≈ 0.485 to 4.04 µg/mL) in each case.
On to `COc1c(C)c(O)c(C)c2c1C(=O)/C(=C/c1ccccc1)O2` [C10, (Z)-2-benzylidene-6-hydroxy-4-methoxy-5,7-dimethylbenzofuran-3(2H)-one], for which the MIC in the data set on B. mallei and with B. pseudomallei was 1.5 to 12.5 µM (≈ 0.444 to 3.7 µg/mL) each time.
For `COc1ccc(/C=C2\Oc3cc(N)ccc3C2=O)cc1` [C11, (Z)-6-amino-2-(4-methoxybenzylidene)benzofuran-3(2H)-one], the MIC lay in the range of 1.5 to 12.5 µM (≈ 0.401 to 3.34 µg/mL) with B. mallei; 1.5 to 3.12 µM (≈ 0.401 to 0.834 µg/mL) in [2]; 1.5 to 12.5 µM (≈ 0.401 to 3.34 µg/mL) with B. pseudomallei; 6.25 to 12.5 µM (≈ 1.67 to 3.34 µg/mL) in data set [3]; 3.12 to 12.5 µM (≈ 0.834 to 3.34 µg/mL) with B. cepacia. For the same molecule, the “antimicrobial activity … (ranking)” value in data set [1] is “the more active”. In [4], the “Therapeutic index” value was 38-4017. Moreover, the “mean of TI/SF” value in [4] turned out to be 355. The “antimicrobial activity, spectrum” value in [5] was “confirmed the activity”.
Regarding `O=C1/C(=C/c2ccc(OCc3ccccc3)cc2OCc2ccccc2)Oc2ccccc21` [C12, (Z)-2-(2,4-bis(benzyloxy)benzylidene)benzofuran-3(2H)-one], the MIC lay in the range of 1.5 to 12.5 µM (≈ 0.652 to 5.43 µg/mL) in the data set on B. mallei, 1.5 to 12.5 µM (≈ 0.652 to 5.43 µg/mL) in the data set with B. pseudomallei and 3.12 to 12.5 µM (≈ 1.36 to 5.43 µg/mL) in the data set on B. cepacia. For the same molecule, the “antimicrobial activity … (ranking)” value in [1] is recorded as “the more active”. For the same molecule, the “Therapeutic index” value in data set [4] is on record as 38-4017. In [4], the “mean of TI/SF” value was determined as 1169. Also, the “antimicrobial activity, spectrum” value in data set [5] is listed as “confirmed the activity”.
Molecule `COc1cc(/C=C2\Oc3ccc(NC(C)=O)cc3C2=O)cc(OC)c1OC` [D1, (Z)-N-(3-oxo-2-(3,4,5-trimethoxybenzylidene)-2,3-dihydrobenzofuran-5-yl)acetamide] came in with a melting point of 254 °C. The MIC in the data set on B. mallei lay in the range of 1.5 to 12.5 µM (≈ 0.554 to 4.62 µg/mL). In the data set on B. pseudomallei, the MIC is 1.5 to 12.5 µM (≈ 0.554 to 4.62 µg/mL). Besides, the MIC in the data set on B. cepacia lay in the range of 3.12 to 12.5 µM (≈ 1.15 to 4.62 µg/mL).
`COc1ccc(/C=C2\Oc3ccccc3C2=O)cc1` [D10, (Z)-2-(4-methoxybenzylidene)benzofuran-3(2H)-one]: the MIC in the data set on B. mallei is 1.5 to 12.5 µM (≈ 0.378 to 3.15 µg/mL); in [2], 1.5 to 3.12 µM (≈ 0.378 to 0.787 µg/mL); in the data set on B. pseudomallei, 1.5 to 12.5 µM (≈ 0.378 to 3.15 µg/mL); in data set [3] it was 6.25 to 12.5 µM (≈ 1.58 to 3.15 µg/mL); in the data set with B. cepacia, 3.12 to 12.5 µM (≈ 0.787 to 3.15 µg/mL).
As to `O=C1/C(=C/c2ccc(Oc3ccc4oc(-c5ccccc5)cc(=O)c4c3)cc2)Oc2ccccc21` [E5, (Z)-6-(4-((3-oxobenzofuran-2(3H)-ylidene)methyl)phenoxy)-2-phenyl-4H-chromen-4-one], the “antimicrobial activity … (ranking)” value in data set [1] is reported as “the more active”. The MIC in [2] fell in the range of 1.5 to 3.12 µM (≈ 0.688 to 1.43 µg/mL). Moreover, the MIC in data set [3] was in the range of 6.25 to 12.5 µM (≈ 2.87 to 5.73 µg/mL). For the same molecule, in data set [4], the “Therapeutic index” value was 38-4017 and the “mean of TI/SF” value worked out at 852. Besides, the “antimicrobial activity, spectrum” value in [5] is on record as “confirmed the activity”.
As for `O=C(O)c1ccc2c(c1)C(=O)/C(=C/c1ccc(OCc3ccccc3)c(OCc3ccccc3)c1)O2` [MR1065, (Z)-2-(3,4-bis(benzyloxy)benzylidene)-3-oxo-2,3-dihydrobenzofuran-5-carboxylic acid], the “Therapeutic index” value in data set [7] was found to be 712.82.
Turning to `O=C(O)CCCCCOc1ccc(/C=C2\Oc3ccccc3C2=O)cc1` [MR1076, (Z)-6-(4-((3-oxobenzofuran-2(3H)-ylidene)methyl)phenoxy)hexanoic acid], in data set [8], the antimicrobial activity result is listed as “active”. Moreover, the IC50 in [6] was over 250 µM.
With cephalocerone, the growth inhibition result in the data set on Erwina cacticida is on record as “inhibit the growth”.
As for hispidol, the “inhibition of fungal pathogen” value in the data set with Phoma medicaginis is on record as “inhibit”.
Turning to hispidol-4′-O-β-D-glucoside, the “inhibition of fungal pathogen” value in the data set with Phoma medicaginis is recorded as “inhibit”.

These data come from US20230295103A1 (priority 2020, published 2023).
